Reference: ChEMBL document CHEMBL1142388, “Carbonic anhydrase activators: activation of the human tumor-associated isozymes IX and XII with amino acids and amines” (Bioorg Med Chem, 2008)

Tests used:
[1] = target: Carbonic anhydrase 9 (Homo sapiens) (UniProt Q16790); assay: Activation of human recombinant CA9 catalytic domain by stopped-flow CO2 hydration method
[2] = target: Carbonic anhydrase 12 (Homo sapiens) (UniProt O43570); assay: Activation of human recombinant CA12 catalytic domain by stopped-flow CO2 hydration method
Sequence of Carbonic anhydrase 12 (Homo sapiens) (O43570 whole entry, the tested form may be a part): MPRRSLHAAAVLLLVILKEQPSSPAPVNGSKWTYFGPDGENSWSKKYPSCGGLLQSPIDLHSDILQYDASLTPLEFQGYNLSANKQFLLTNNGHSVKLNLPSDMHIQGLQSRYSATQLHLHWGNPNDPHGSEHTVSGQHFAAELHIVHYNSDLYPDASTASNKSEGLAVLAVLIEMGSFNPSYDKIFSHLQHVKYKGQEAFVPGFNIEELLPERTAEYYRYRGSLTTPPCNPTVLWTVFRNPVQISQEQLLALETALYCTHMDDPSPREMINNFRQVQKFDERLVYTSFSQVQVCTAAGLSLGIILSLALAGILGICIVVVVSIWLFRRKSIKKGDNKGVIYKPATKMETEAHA

CNCC(O)c1ccc(O)c(O)c1 (single isomer, unassigned)
KA [1]: 0.87 µM
KA [2]: 0.41 µM

N[C@@H](Cc1ccc(O)cc1)C(=O)O
KA [1]: 25.3 µM
KA [2]: 25.8 µM

NCc1ccccn1
KA [1]: 1.07 µM
KA [2]: 41.5 µM

Nc1ccc(C[C@H](N)C(=O)O)cc1
KA [1]: 48.7 µM
KA [2]: 1.09 µM

N[C@H](Cc1ccc(O)c(O)c1)C(=O)O
KA [1]: 54.7 µM
KA [2]: 0.89 µM

N[C@@H](Cc1c[nH]cn1)C(=O)O
KA [1]: 9.71 µM
KA [2]: 37.5 µM

N[C@@H](Cc1c[nH]c2ccccc12)C(=O)O
KA [1]: 37.5 µM
KA [2]: 26 µM

NCCN1CCOCC1
KA [1]: 0.43 µM
KA [2]: 0.24 µM

NCCN1CCNCC1
KA [1]: 0.009 µM
KA [2]: 48.3 µM

NCCc1ccccn1
KA [1]: 0.013 µM
KA [2]: 0.69 µM

N[C@H](Cc1c[nH]c2ccccc12)C(=O)O
KA [1]: 43.6 µM
KA [2]: 28.1 µM

NCCc1ccc(O)c(O)c1
KA [1]: 0.92 µM
KA [2]: 0.67 µM

NCCc1c[nH]cn1
KA [1]: 35.1 µM
KA [2]: 27.9 µM

NCCc1c[nH]c2ccc(O)cc12
KA [1]: 33.1 µM
KA [2]: 0.3 µM

N[C@H](Cc1c[nH]cn1)C(=O)O
KA [1]: 12.5 µM
KA [2]: 24.7 µM

N[C@@H](Cc1ccc(O)c(O)c1)C(=O)O
KA [1]: 51.3 µM
KA [2]: 1.67 µM
